Test results taken from a melting point compilation (Tetko et al.; mined from patent text by program, amines drawn as free bases though some values may be those of a salt).
Starred links: 1 amine or outer side, 2 acyl side, 3 side chain; linkers in the order of their positions; H or OH if unused. Residues, ends and D or L forms follow the SMILES beside them. *: point of attachment. 4Abz = Nc1ccc(C(=O)O)cc1; CO = O=C([*:1])[*:2]; CF3 = FC(F)(F)*

melting point [°C] | SMILES
124 to 126 | CC(C)c1cc(C(C)C)c(CC(=O)O)c(-c2ccc(F)cc2)c1CO
85.5 to 89 | COCc1cccc2c1ccn2S(=O)(=O)c1ccc(C)cc1
233 to 234 | O=C1Nc2ccccc2Oc2c1[nH]c1ccccc21
86 to 87 | C=CCOc1cc2c(cc1Br)CC[C@H]2CCNC(=O)CC
186 | CCOC(=O)c1[nH]cc2c1NC1=C(C(=O)CCC1)C2c1ccc(Sc2nc3c(F)c(F)c(F)cc3[nH]2)o1 (centres undefined)
158 to 160 | O=C1COC(c2cccc(Cl)c2)c2ncccc21 (centres undefined)
193 to 194 | Cn1cc(C(=O)NCc2ccc(Cl)cc2)c(=O)c2sc(CO)c(COCC[Si](C)(C)C)c21
223 to 224 | CN(C)CCNC(=O)[C@H]1C[C@H](NC(=O)Nc2ccccc2)c2c(Cl)cc(Cl)cc2N1 (relative stereo)
181 to 183 | COc1cc(Br)cc(/C=C/C(=O)/C=C/c2cc(Br)cc(OC)c2)c1
123 | COC(CNC(=O)CCN1C(=O)NC(C)(C)C1=O)OC
232 to 233 | O=C1NC(=O)C(c2c3n(c4ccccc24)CCC(CO)C3)=C1c1ccccc1Cl (centres undefined)
233 to 235 | CC(Nc1c(Nc2ccc(S(N)(=O)=O)cc2)c(=O)c1=O)C(C)(C)C (centres undefined)
135 to 137 | c1ccc(-c2ncnc3sc4c(c23)CCCC4)cc1
166 to 167 | CCOCOc1cc(F)ccc1-c1cc(-c2cccc([N+](=O)[O-])c2)c(C#N)c(NC(=O)c2cccs2)n1
106 to 107 | CC1C(C)(C)c2ccc(C#Cc3ccc(C=O)cc3)cc2C1(C)C (centres undefined)
144 to 146 | Cc1cccc(C(=O)NO)c1N(C)S(=O)(=O)c1ccc(OCCCNC(=O)c2cc3ccccc3[nH]2)cc1
160 to 161 | CC(C)S(=O)(=O)c1cc(OCc2ccc(S(C)(=O)=O)cn2)c2[nH]nc(Nc3nccs3)c2c1
98.5 | Cc1c(C#N)c(SC(F)(F)F)cn1-c1c(Cl)cc(C(F)(F)F)cc1Cl
314 to 316 | COc1ccc2c(=O)[nH]c(=O)[nH]c2c1OC
92 to 93 | O=C(O)CCCCCCCSc1ccc(Cl)cc1
> 95 | CCCCc1nn(-c2cc(NC(=O)CC)ccc2Cl)c(C#N)c1Cc1ccc(-c2ccccc2S(=O)(=O)NC(=O)OC(C)(C)C)cc1F

melting point [°C] | SMILES
211 to 212 | Cc1c(C(=O)N(C)c2ccc(N3CCC(O)CC3)c(C#N)c2)cnn1-c1ccc(F)cc1
197 to 198 | COc1ccc(-c2ccc(C#N)cn2)cc1C=O
139 to 140 | CC(=O)N1CCN=C1Nc1cc(C(C)C)nn1C(C)C
158 to 160 | O=C1c2ccccc2C(=O)N1CC#Cc1ccc(Cl)cc1C(O)c1ccccc1F (centres undefined)
73 to 76 | O=S(=O)(Nc1ccc(Cl)cc1)C(Cl)=C(Cl)Cl
135 to 136 | CCCS(=O)(=O)c1cc([C@H]2CC[C@H](c3cc(OC)c(OC)c(OC)c3)O2)cc(OC)c1OCCBr (relative stereo)
151 to 152 | COCCNc1nc2ccccc2n(-c2ccc(Cl)cc2)c1=O
171 | C=CC(=O)NC1=CC(O)(C(C)=O)C(C(=O)O)C=C1 (centres undefined)
177 to 179 | CC(C)(C)c1cc(CCc2ccccc2NC(=O)NCCc2ccc(F)cc2)cc(C(C)(C)C)c1O
85 to 86 | Fc1cccc(F)c1C1=NC(C2(OC(F)(F)F)C=CC(c3ccccc3)=CC2)CS1 (centres undefined)
159 to 161 | Cc1ccc(Cn2c(=O)c3c(Cl)cc(Cl)cc3n(Cc3ccccc3)c2=O)o1
92 | Cc1cn(-c2cccc(C3=Nc4ccc(-c5ccccc5F)cc4NC(=O)C3)c2)c(C)n1
158 to 160 | CC(=O)O/N=C(\C)[C@H]1CC[C@H]2[C@@H]3CCC4=CC(=O)CC[C@]4(C)[C@H]3CC[C@]12C
137 to 139 | CNC(=O)C(C)Oc1ncn(-c2cccc(C(F)(F)F)c2)n1 (centres undefined)
110 to 112 | CC(C)CCc1ccc(C#N)c(=O)[nH]1
171 to 172 | COc1cc(C(=O)Nc2cc(C(=O)c3ccccc3)ccc2N2CCOCC2)cc(OC)c1OC
171 to 174 | Cc1ccc(N)c(C(N)=O)c1
64 to 66 | CON=C(c1ccccc1)c1ccc2c(c1)C(C)(C)CCN2CCOc1ccc(CC(OC(C)=O)C(=O)O)cc1 (centres undefined)
105 | C1=C(CCc2ccco2)CCN(Cc2c[nH]c3ncccc23)C1
128 to 130 | CCOC(=O)C(=O)Nc1ccc(Cl)c(C(F)(F)F)c1
79 to 80 | O=C(O)Cc1ccccc1OCCC(c1ccccc1)(c1ccccc1)c1ccccc1

melting point [°C] | SMILES
226 to 228 | CCN1CCN(C(=O)N2CCC(N3N=C(c4ccc(OC)c(OC)c4)[C@H]4CC=CC[C@H]4C3=O)CC2)C(=O)C1=O
228 | Fc1ccc(Cn2c(NC3CCN(CCCCNc4nc5cnccc5[nH]4)CC3)nc3ccccc32)cc1
179 to 181 | CN(C(CCn1c(=O)cc(-c2ccccc2)[nH]c1=O)C(=O)NO)S(=O)(=O)c1ccc(Oc2ccccc2)cc1 (centres undefined)
143 | CC(C)OP(=O)(Cc1c(C2CCCCC2)cc(O)cc1C1CCCCC1)OC(C)C
187 to 188 | Cc1ccccc1NC(=O)C1Sc2ccccc2N(C)C1=O (centres undefined)
179 to 180 | O=C(O)c1ccc(OCc2ccccc2)cc1O
246 to 249 | O=C1COc2ccc(C3=Cc4ccccc4OC3c3ccccc3)cc2N1 (centres undefined)
184 to 185 | CC(C)Cn1nc(-c2ccc(C(F)(F)F)cc2)cc(C(=O)O)c1=O
137 to 138 | CCCCOc1c(CNC(=O)OC(C)(C)C)n(CC(C)C)c(=O)c2ccc(NC(=O)OCC3c4ccccc4-c4ccccc43)cc12
98 to 128 | CC(C)C(NC(=O)Nc1ccc(C(=O)NCC(=O)O)cc1)C(=O)N1CCCC1C(=O)NC(C(=O)C(F)(F)F)C(C)C (stereo not drawn) ({Gly-4Abz-CO}-Val-Pro-Val-CF3; configuration not given here)
128 to 130 | Cc1nc2c(Br)cnn2c(Cl)c1CCCl
140 to 145 | CC=C(C)C1CCC2C3CC=C4CC(O)CCC4(C)C3CCC12C (centres undefined)
180 | Cc1cc(C)cc(N(CCO)Cc2ccc3nc(NCCCN4CCOCC4)n(Cc4nc(C)ccc4O)c3c2)c1
> 250 | N[C@@]1(C(=O)O)C[C@H](NC(=O)Nc2cccc(Cl)c2)[C@H]2[C@H](C(=O)O)[C@H]21 (relative stereo)
115 to 117 | CCOC(=O)c1[nH]c(C)c(CC(C)C)c1C
109 to 110 | CCCCCCNC(=O)Oc1ccc2oc3ccccc3c2c1
159 to 161 | Nc1cc(Cl)ccc1-c1noc(=O)[nH]1
105 to 107 | CCc1cc(C[C@H](NC(=O)c2c(Cl)cccc2Cl)C(=O)O)ccc1-c1ccccc1OC
154 | O=C(Nc1cccc(SC(F)(F)F)c1)c1ccc2ccccc2c1O
229 to 231 | COc1cc(-c2cnc3[nH]cc(C(=O)C4(C)CCCC(C)C4)c3n2)cc(OC)c1OC (centres undefined)
90 | CN1CC(CN)Oc2c(-c3ccc(Cl)cc3Cl)cccc21 (centres undefined)

melting point [°C] | SMILES
234 to 237 | CS(=O)c1ccc(-c2coc3ccc(-c4nnc(O)o4)cc23)cc1 (centres undefined)
95 to 96 | COc1cc(S(=O)(=O)CCO)ccc1[N+](=O)[O-]
134 | CC(=O)c1cc(-c2ccc(C(C)(C)C)cc2)c2c(c1)C(C)(C)CCC2(C)C
155 to 157 | CCCCn1c(=O)c2c(ncn2S(=O)(=O)c2ccc(N(OC(C)=O)C(C)=O)cc2)n(CCCC)c1=O
81 to 84 | Cc1cccc(C)c1N(CC(C)O)S(C)(=O)=O (centres undefined)
171 to 178 | Cc1nc2cc(S(=O)(=O)n3c(CCCC(=O)O)cc4cc(C(F)(F)F)ccc43)ccc2s1
264 | O=C(NC(=O)c1c(Cl)cccc1OCc1ccccc1)Nc1ccc(C(F)(F)F)cc1
254 to 255 | CC1(Cn2c(=O)oc3ccc(-c4ccccc4)cc32)Cn2cc([N+](=O)[O-])nc2O1 (centres undefined)
130 to 132 | Cn1c(-c2ccc(N3CCOCC3)cc2)cnc1[C@H](Cc1ccccn1)N(C=O)c1cc2cc(F)ccc2o1
62 to 72 | CC(C)C1COC(c2ccccc2CO)=N1 (centres undefined)
97 | CCc1ccc2c(c1)C(O)Cc1ccc(F)cc1S2 (centres undefined)
112 | CCCCc1nc(SC)c(C(=O)OCC)n1Cc1cccc(-c2cccc(S(=O)(=O)NC#N)c2)c1
151 to 152 | NC(=O)CCc1cnoc1-c1ccccc1
131 | c1ccc(-c2nn[nH]c2-c2ccccc2)cc1
76 to 80 | CC(=O)Nc1cccn(CC(=O)NC(C(=O)C(F)(F)F)C(C)C)c1=O (centres undefined)
308 to 310 | CCn1cc(C(=O)O)c(=O)c2c(F)c(F)c(N3CCSCC3)c(F)c21
> 300 | O=C(Nc1ccc(Sc2c(O)c3c(Cl)cc(Cl)cc3[nH]c2=O)cc1)c1cccnc1
286 to 290 | COc1ncc(-c2nn(C(C)c3oc4ccccc4c(=O)c3-c3cccc(F)c3)c3ncnc(N)c23)c(OC)n1 (centres undefined)
54 to 55 | O=C(OCc1cc(OCCCO)c(OCCCO)c(OCCCO)c1)c1ccccc1
177 to 179 | COc1ccc2nc(Cl)nc(Nc3ccccc3)c2c1
110 to 112 | CCCCCCCCCCCCOC(=O)c1cccc(NC(=O)NS(=O)(=O)c2ccc(C)cc2)c1

SMILES | melting point [°C]
COc1ccc(C=C(C)[N+](=O)[O-])c(OC)c1 | 80 to 81
N#Cc1c(F)c(F)c(CO)c(F)c1F | 50
N#Cc1cc(Cl)c(NC(=O)NC(=O)c2c(F)cccc2F)cc1Cl | 238 to 240
Cc1cccc2c(=O)[nH]c(C3CN4CCC3CC4)nc12 (centres undefined) | 230 to 231
CN(C)Cc1nc(C(=O)N(C)C)nn1-c1ccc(Cl)cc1C(=O)c1ccccc1F | 140 to 142
CCCCN1CCC2(CC1)OC(=O)c1ccccc12 | 60 to 62
N#Cc1ccc(N2C(=O)[C@H]3C(O)C(O)CN3C2=O)c2ccccc12 (some centres undefined) | 225
O=[N+]([O-])c1cnc2ccccc2c1NCC12CCCN1CCC2 | 155 to 158
O=C(OCC1CCCC1)c1ncn2c1[C@@H]1CCCN1C(=O)c1c(Cl)cccc1-2 | 112 to 114
CC1=NC(C)c2nnc(-c3ccc(Cl)cc3)n2-c2ccccc21 (centres undefined) | 230
